Assay results reported in ChEMBL document CHEMBL4049463, “Repurposing Suzuki Coupling Reagents as a Directed Fragment Library Targeting Serine Hydrolases and Related Enzymes” (J Med Chem, 2017).

How the values were obtained:
Autotaxin (Mus musculus) = Autotaxin (Mus musculus) (UniProt Q9R1E6)
Autotaxin = Autotaxin (Mus musculus, UniProt Q9R1E6); assay: Inhibition of mouse ATX using TG-mTMP as substrate after 2 hrs by fluorometric analysis

Compound | IC50 (Autotaxin (Mus musculus)) [µM] | IC50 (Autotaxin) [µM]
COCCc1ccc(OCc2cccc(B(O)O)c2)cc1 | 0.501 | 
CS(=O)(=O)c1ccc(O)cc1 | 631 | 
OB(O)c1ccc2cc[nH]c2c1 | 2 | 
N#Cc1ccc(B(O)O)cc1 | 5.01 | 
OCc1cccc(B(O)O)c1 | 12.6 | 
COc1cccc(B(O)O)c1 | 20 | 
OB(O)c1ccc2nonc2c1 | 10 | 
O=C(O)c1ccc2cc[nH]c2c1 | 794 | 
OB(O)c1ccc(O)cc1 | 10 | 
N#C/C=C/c1cccc(B(O)O)c1 | 1.58 | 
N#CCc1cccc(B(O)O)c1 | 5.01 | 
OB(O)c1ccccc1CCN1CCN(c2nc(O)c(Cc3ccc(Cl)c(Cl)c3)s2)CC1 |  | 0.631
COc1ccccc1B(O)O | 3.98 | 
OB(O)c1cccc(O)c1 | 10 | 
OB(O)c1ccccc1 [PHENYLBORONIC ACID] | 10 | 
Oc1ccc(-n2ccnc2)cc1 | 501 | 
COc1cc(COc2ccc(B(O)O)cc2Cl)cc(OC)c1 | 0.316 | 
OB(O)c1ccc(Cl)cc1 | 3.16 | 
OB(O)c1ccccc1OCc1cccc(Cl)c1 | 1 | 
NCc1cccc(O)c1 | 1260 | 
OB(O)c1cccc(CCN2CCN(c3nc(O)c(Cc4ccc(Cl)c(Cl)c4)s3)CC2)c1 |  | 0.0126
COc1ccc(B(O)O)cc1 | 5.01 | 
Nc1cccc(-c2nnc[nH]2)c1 | 251 | 
CS(=O)(=O)c1ccc(B(O)O)cc1 | 5.01 | 
OB(O)c1ccc(CCCN2CCC(c3nc(O)c(Cc4ccc(Cl)c(Cl)c4)s3)CC2)cc1 |  | 0.02
N#Cc1cccc(B(O)O)c1 | 20 | 
Oc1ccc2nonc2c1 | 200 | 
